Test results taken from patent US4454158A, “Allyl amine MAO inhibitors” (Merrell Toraude et Compagnie, priority 1981, dated 1984).
Like-named read-outs stand apart in the source and are kept apart here.

Key:
MAO-A and MAO-B = details: literature; cited from earlier work
MAO [1] = experiment: Inhibition of MAO - In vitro (14C p-tyramine substrate, partially purified rat brain mitochondria); type: biochemical; details: tested as hydrochloride salt, read-out: IC50 (MAO inhibitory activity - In vitro)
Description: (A) The ability of a compound of Formula I or II to inhibit MAO can be determined in vitro by the method of A. Christmas et al, Br. J. Pharmacol. 45, 490 (1972) in partially purified mitochondria from rat brain using ^14 C p-tyramine as the substrate.

MAO [2] = experiment: Inhibition of MAO - Ex vivo, rat (14C p-tyramine substrate); type: in vivo; details: for % Inhibition of MAO - Brain: 18 hr; for % Inhibition of MAO - Duodenum / % Inhibition of MAO - Heart / % Inhibition of MAO - Liver: 2 hr
Method: The ability of a compound of Formula I or II to inhibit MAO can be determined ex vivo by the following procedure:
The test compound is administered intraperitoneally (ip), intravenously (iv), or orally (po) to rats or mice and the animals are killed at various times after treatment. […] MAO activity is determined in the homogenates using ^14 C p-tyramine, as the substrate. […] Selectivity can be determined by repeating the above-described test using either ^14 C 5-hydroxytryptamine (for MAO-A) or ^14 C phenethylamine (for MAO-B) as the substrate for determining the % inhibition

MAO [3] = experiment: Inhibition of MAO - In vivo: change in levels of endogenous MAO substrates and metabolites in mouse brain; design: species or system mice; details: 16 hr
Method: The ability of a compound of Formula I or II to inhibit MAO can be determined in vivo in mice according to the following procedure, wherein changes in concentration of the endogenous MAO substrates and the metabolites thereof are assayed.
Mice are given an intraperitoneal injection of the test compound and 2 hours or 16 hours later the animals are killed. The levels of dopamine, dihydroxyphenylacetic acid (DOPAC), 5-hydroxytryptamine (5-HT), and 5-hydroxyindole-3-acetic acid (5-HIAA) in brain homogenates are determined by the method of J. Wagner et al, J. Chromatog. 164, 41 (1979) and P. Bey et al, Br. J. Pharmac., 70, 571 (1980).

[4] = system: heart rate response to p-tyramine; experiment: Cheese effect: potentiation of heart-rate response to p-tyramine in rats; details: rat; for Potentiation of heart-rate response to p-tyramine: dose 1.0 (iv)
Method: The following test procedure can be employed to assess the potential of a compound of Formula I or II for producing the "cheese effect":
Rats are administered an intravenous injection of the test compound at various dosage levels, and 30 minutes later the rats are challenged with several intravenous or intraduodenal dodes of p-tyramine. The heart rate response is measured.

MAO-B versus MAO-A = experiment: Selectivity of MAO inhibitors - In vitro (14C 5-hydroxytryptamine for MAO-A, 14C phenethylamine for MAO-B); type: biochemical, rat; details: for Selectivity (ratio of inhibitory activity against MAO-B versus MAO-A): in vitro, rat brain mitochondria
Method: Mitochondria are prepared from rat brain by homogenation in phosphate buffer (0.1 M, pH 7.2) followed by differential centrifugation. The mitochondria are suspended in the same buffer, the test compound is added at the desired concentration, and the system is incubated. […] Christmas, et al, supra).
Selectivity is expressed as the ratio of the inhibitory activity against MAO-B versus the inhibitory activity against MAO-A.

With `N[C@@H]1C[C@H]1c1ccccc1` (relative stereo) [tranyclcypromine] as the compound, how does the “preferential inhibition of MAO-A or MAO-B (in words)” value (MAO-A and MAO-B) read?
The value was “not preferential in their action upon MAO”.

With `C=C(CN)c1cccc(O)c1` [2-(3-hydroxy)phenylallylamine, 2-(3'-Hydroxy)phenylallylamine] as the compound, how does the IC50 (MAO [1]) read?
Its IC50 is 0.25 µM.

With `C=C(CN)c1cccc(OC)c1` [2-(3-methoxy)phenylallylamine, 2-(3'-Methoxy)phenylallylamine] as the compound, how does the IC50 (MAO [1]) read?
The IC50 was 10 µM.

With `NCC(=C(Br)Br)c1ccccc1` [2-phenyl-3,3-dibromoallylamine, 2-Phenyl-3,3-dibromoallylamine] as the compound, how does the IC50 (MAO [1]) read?
The IC50 was 500 µM.

Which IC50 (MAO [1]) does the source give for `NCC(=C(F)F)c1ccccc1` [2-phenyl-3,3-difluoroallylamine, 2-Phenyl-3,3-difluoroallylamine] here?
The IC50 was 10 µM.

With `NCC(=CBr)c1ccccc1` [2-phenyl-3-bromoallylamine, 2-Phenyl-3-bromoallylamine] as the compound, how does the IC50 (MAO [1]) read?
Its IC50 is 40 µM.

With `C=C(CN)c1ccccc1` [2-phenylallylamine, 2-Phenylallylamine] as the compound, how does the IC50 (MAO [1]) read?
The IC50 was 400 µM.

Which IC50 (MAO [1]) does the source give for `COc1ccccc1/C(=C\F)CN` [(E)-2-(2'-Methoxy)phenyl-3-fluoroallylamine] here?
The IC50 was 2.5 µM.

With `COc1ccc(/C(=C\F)CN)cc1OC` [(E)-2-(3',4'-Dimethoxy)phenyl-3-fluoroallylamine] as the compound, how does the “% Inhibition of MAO - Brain” value (MAO [2]; 0.5 mg/kg po) read?
Its value is 79%.

What about the “% Inhibition of MAO - Duodenum” value (MAO [2]; 1.0 mg/kg iv) of the same compound?
The value was 40%.

What about the “% Inhibition of MAO - Heart” value (MAO [2]; 1.0 mg/kg iv) of the same compound?
Its value is 17%.

And the “% Inhibition of MAO - Liver” value (MAO [2]; 1.0 mg/kg iv)?
The value was 58%.

What about the “% Inhibition of MAO - Brain” value (MAO [2]; 10.0 mg/kg po) of the same compound?
Its value is 93%.

What about the “% Change (compared to control) - 5-HIAA” value (MAO [3]; 10 mg/kg ip) of the same compound?
Its value is -8%.

And the “% Change (compared to control) - 5-HT” value (MAO [3]; 10 mg/kg ip)?
The value was “+31%”.

And the “% Change (compared to control) - DOPAC” value (MAO [3]; 10 mg/kg ip)?
Its value is -62%.

And the “% Change (compared to control) - Dopamine” value (MAO [3]; 10 mg/kg ip)?
Its value is “+18%”.

What about the “% Change (compared to control) - 5-HIAA” value (MAO [3]; 50 mg/kg ip) of the same compound?
The value was -32%.

And the “% Change (compared to control) - 5-HT” value (MAO [3]; 50 mg/kg ip)?
Its value is “+122%”.

And the “% Change (compared to control) - DOPAC” value (MAO [3]; 50 mg/kg ip)?
The value was -85%.

And the “% Change (compared to control) - Dopamine” value (MAO [3]; 50 mg/kg ip)?
Its value is “+22%”.

And the “Potentiation of heart-rate response to p-tyramine” value ([4]; p-tyramine i.d.)?
Its value is 2.5 fold.

What about the “Potentiation of heart-rate response to p-tyramine” value ([4]; p-tyramine i.v.) of the same compound?
Its value is 2.3 fold.

And the “risk of producing the cheese effect (in words)” value ([4]; in vivo)?
Its value is “significantly decreased risk”.

What about the “selectivity for MAO-B as compared to MAO-A (in words)” value (MAO-B versus MAO-A) of the same compound?
Its value is “marked selectivity for MAO-B as compared to MAO-A”.

And the “Selectivity (ratio of inhibitory activity against MAO-B versus MAO-A)” value (MAO-B versus MAO-A)?
Its value is 1000.

And the “selectivity for MAO-B as compared to MAO-A (in words)” value (MAO-B versus MAO-A; listed as (E)-2-(3',4'-dimethoxyphenyl)-3-fluoroallylamine)?
The value was “selective inhibitors of MAO-B”.

What about the IC50 (MAO [1]) of the same compound?
The IC50 was 2.5 µM.

Which results are given for `COc1cccc(/C(=C\F)CN)c1` [(E)-2-(3'-Methoxy)phenyl-3-fluoroallylamine]?
% Inhibition of MAO - Duodenum (MAO [2]; 0.1 mg/kg iv): 90%; % Inhibition of MAO - Heart (MAO [2]; 0.1 mg/kg iv): 98%; % Inhibition of MAO - Liver (MAO [2]; 0.1 mg/kg iv): 70%; Selectivity (ratio of inhibitory activity against MAO-B versus MAO-A) (MAO-B versus MAO-A): 4; IC50 (MAO [1]): 0.005 µM

With `NC/C(=C/F)c1cccc(O)c1` [(E)-2-(3'-hydroxy)phenyl-3-fluoroallylamine] as the compound, how does the IC50 (MAO [1]) read?
Its IC50 is 0.05 µM.

With `NC/C(=C/F)c1cccc(C(F)(F)F)c1` [(E)-2-(3'-trifluoromethyl)phenyl-3-fluoroallylamine] as the compound, how does the IC50 (MAO [1]) read?
The IC50 was 0.007 µM.
